Assays:
[1] = system: MCF7 human breast cancer cells; test: Dox-induced DNA damage (AP sites) in MCF7 cells used as surrogate CTCs, extended DNA fibers; type: cell-based
Excerpt: MCF7 cells were exposed to Doxorubicin (Dox) in culture (1) or exposed to Dox in culture and then processed using the Mag Sweeper Oft MCF7 cells processed identically but not treated with Dox served as controls in each case. Cells were next were recovered, put onto slides and lysed and DNA extended
MCF7 cells were exposed to Doxorubicin (Dox) alone (first three bars) or exposed to Dox first then isolated using Mag Sweeper (fourth, filth, sixth bars). Thereafter. DNA was extended on slides following cell lysis and DNA and sites of DNA damage were stained with fluorescent probes Images of extended fluorescently-labeled DNA fibers were obtained and DNA content and DNA damage site number were determined by computer analysis of the images. Results of the analysis of DNA damage in the bars is reported with the ordinate of the graph scaled as the number of DNA damage sites, in this case AP sites, per 10^6 nucleotides in length
In an initial study, MCF7 human breast cancer cells, a line of human breast adenocarcinoma, were used to simulated CTCs. The “simulated CTCs” were exposed to 0, 0.33, and 0.66 μM doxorubicin (Dox). Doxorubicin is a principal chemotherapeutic agent for breast cancer and the doses of the drug were chosen to approximate dose levels achieved in patients. In one experiment, untreated cells and cells treated with Dox were harvested 16 hours after starting sham or drug treatment and slides of extended DNA were prepared from the untreated and treated cells. The amount of DNA damage for each treatment condition was then determined. This experiment was designed to test whether drug exposure of the cells alone increased DNA damage in the form of abasic (AP) sites (FIG. 13, upper path). Next, untreated cells and cells treated with Dox were collected 16 hours after starting sham or drug treatment. The cells were subjected to a CTC isolation technique referred to as the ‘Mag Sweeper’ process (15) and the recovered cells' DNA harvested and placed on slides to extend the DNA and then the DNA analyzed for damage as described herein ([…], lower path).

DT40 cells [2] = system: DT40 cells
Method: Briefly, cells growing in culture were first labeled for 10 min in medium with 100 μM iododeoxyurine (IdU), and then centrifuged to remove the medium containing IdU. […] After exposure to the second halogenated nucleotide, the cells were harvested by centrifugation and resuspended in ice cold PBS at about 200 cells/μl.
For the detection of IdU and CIdU within the DNA fiber spreads, the slides were treated with 2.5 M HCl for 30 min, washed several times in PBS, and blocked in 3% bovine serum albumin in PBS for 60 min. […]
To determine the number of nt that had been replicated (i.e., incorporated IdU or CIdU) in normal culture conditions, the total amount of fluorescence from both IdU and CIdU was measured. The number of AP sites co-localized in areas where DNA had replicated was assessed using the co-localization function provided by Image J. In this series of experiments, AP sites were marked by blue signal and those that co-localized with areas undergoing replication were counted using the particle counter function of Image J. To determine the amount of replicating DNA expressed in nt, the total amount of red and green fluorescence (IdU and CIdU, respectively) was determined and then divided by fluorescence intensity per nt, as described above.
To determine the number of AP sites per unit length of DNA in areas undergoing replication, cells were first pulsed with IdU (a nucleotide precursor), and then pulsed with CIdU (a different precursor). […] Fluorescently labeled AP sites were readily detected and could be quantified with respect to the fluorescent tracks of IdU and CIdU labeled DNA (see Materials and Methods).

DT40 cells [3] = settings: cells exposed to 20 μM H2O2
Method: (§1) Avian DT40 cells (38, 39) were grown at 39.5° C., the normal Avian body temperature, in a humidified atmosphere supplemented with 5% CO2 as a suspension in RPMI-1640 (Invitrogen) supplemented with 10% fetal bovine serum (Sigma), 1% chicken serum (Sigma and Invitrogen), and containing 100 μg/ml penicillin and 100 μg/ml streptomycin (Invitrogen).
DNA was isolated from DT40 cells in normal culture conditions or DT40 cells experiencing oxidative stress and processed for slot-blot analysis as described previously (2).

DT40 cells [4] = settings: H2O2-treated versus untreated cells
Method: as §1

Compound | DNA damage (AP sites) after Mag Sweeper isolation ([1]; 0.33 and 0.66 μM Dox, 16 hours, then cells processed with Mag Sweeper, versus untreated cells) | DNA damage (level of AP sites) ([1]; 0.33 and 0.66 μM Dox, harvested 16 hours after start, Dox alone, versus untreated cells) | dose dependence of DNA damage ([1]; 0.66 versus 0.33 μM Dox, with and without Mag Sweeper) | number of AP sites per 10^6 nt in CIdU tracks (DT40 cells [2]; replicating DNA labeled after H2O2 exposure (20 μM, FIG. 3)) | number of AP sites per 10^6 nt in IdU tracks (DT40 cells [2]; replicating DNA labeled before H2O2 exposure (20 μM, FIG. 3)) | increase of AP sites per 10^6 nt in replicating regions exposed to H2O2 (DT40 cells [2]; replicating regions versus global DNA, H2O2-exposed cells) | number of AP sites per 10^6 nt, slot blot analysis (DT40 cells [3]) | clustering of AP sites (DT40 cells [4])
COc1cccc2c1C(=O)c1c(O)c3c(c(O)c1C2=O)C[C@@](O)(C(=O)CO)C[C@@H]3O[C@H]1C[C@H](N)[C@H](O)[C@H](C)O1 [Dox, Doxorubicin] | AP sites increased after Dox treatment | notably increased DNA damage | more damage detected with the higher dose |  |  |  |  | 
OO [H2O2, hydrogen peroxide] |  |  |  | 20.8 per 10^6 nt | 12.9 per 10^6 nt | 50 to 150% | 7.7 AP sites per 10^6 nt | more common

Reference: patent US20130177921A1, “Detection of Damage to DNA” (priority 2010, published 2013)
